In brackets after ≈: the same amount, converted by molar mass.
Tests used:
[1] = Determination of compound aqueous solubility in M63 media; type: physicochemical; details: in M63 media at 35 °C
Procedure: Determination of Compound Aqueous Solubility. Compound stocks (100 mM in DMSO) were prepared from […]
powder and then further diluted with DMSO to prepare 20 mM working solutions, which were diluted as needed […]
in DMSO. 15 µL o f the DMSO solution was then d iluted to a final volume o f 1.0 mL in M63 media. Six solutions […]
were prepared for each compound, each with a distinct concentration and 1.5% DMSO (v/v). 700 µL of each […]
compound solution was transferred to a polystyrene 48-well plate (VWR), followed by acquisition of UV-vis […]
spectra (300 to 700 nm) with the aid of an Epoch 2 microplate reader (B i o Te k ). […]
Following the acquisition of UV-vis spectra, each of the wells in the plate was inspected under a […]
microscope for evidence of precipitation. Evidence of precipitation at any given concentration was determined by observing a shift in the baseline of the UV-vis spectra relative to the blank (M63 media) and/or evidence of visual precipitation with the aid of a micros cope. […]

recombinant Pa BfrB = biological target: T1, recombinant Pa BfrB (Pseudomonas aeruginosa, UniProt Q9HY79); assay: Dissociation constant (Kd), fluorescence quenching titration of apo Pa BfrB; type: binding, P. aeruginosa
T1 construct: made in house; host or cells: E. coli
Procedure: Measurement of Dissociation Constant (Kd) R ecombinant Pa BfrB was expressed in E. coli and purified as previously reported.19 Apo-BfrB (devoid of heme) was utilized for the measurements to prevent heme-driven fluorescence quenching. A 0.5 mL solution contai ning 0.01 µM apo Pa-BfrB in PBS (pH = 7.4) containing0.5% DMSO was plac ed into a 1 cm quartz cuvette wh ere it was titrated with aliq uots of compound dissolved in a 50% (v/v) PBS/DMSO solution. The fluorescence quenching brought by the addition of each aliquot was monitored with the aid of an Agilent Cary Fluorometer , with excitation at 280 nm, emission at 320- 470 nm, 10 x10 nm slit width, and an average of 5 scans per spectrum. Th e binding assay included at least 8 aliquots spanning from ~ 0.1 […]
A control titration was carried out by titrati ng compound into PBS buffer. The Kd was cal culated by fitting the data to equation S4, w here Fb is the fraction bound and Fmax is the fraction bound at saturating compound concentration.
FFbb = FFmmmmmm ? [ccccmmccccccmmcc ]? (S4) […]

A. baumannii 5075 [2] = assay: MIC, broth microdilution in M63 media; type: cell-based
Procedure: (§1) Measurement of Minimum Inhibitory Concentrations (MIC). The MIC of compounds and select ed antibiotics against three strains of A. baumannii (5075, ATCC 17988, and ATCC 19606) were determined via the broth microdilution method according to Clinical and Laboratory Standard Instit ute (CLSI) guidelines,15 but culturing […]
(§2) To establish a 2-fold dilution series of compound, 985 μ L of diluted cells was mixed with 15 μ L of compound […]
(§3) dissolved in DMSO, such that the resultant solution had the highest concentration of compound or antibiotic tested and 1.5% DMSO. To carry out the serial dilution from the highest compound concentration, a 150 μ L solution of higher concentration compound or antibiotic was mixed with 150 μ L of cell suspension containing 1.5% DMSO in the wells of a 96 well plate.
(§4) Th e 96 well plate was in cubated for 20 hat 35 °C with continuous orbital shaking (205 cpm) in an Epoch2 microplate reader (BioTek), monitoring the growth by […]
(§5) following the OD600. […]
(§6) FFFFFF = MMMMMMAA iiii ccllccbbiiiicccciilliiMMMMMMAA+ MMMMMMBB iiii ccllccbbiiiicccciilliiMMMMMMBB S2 Time Kill Assays. Time-kill assays were performed with A. baumannii 507 5 by the broth macro- dilution method in M63- medium containing 1.5% DMSO. An overnight culture was diluted to approximately 5 x10^5 CFU/mL in fresh M63 media. The test solutions were prepared by adding compound (KM-5- 35, or KM-5- 25) dissolved in DMSO to 5 mL of diluted cell suspension to yield a solution of the desired compound concentration and 1.5% DMSO, or by the addition of antibiotic dissolved in water and a small volume of DMSO to produce the desired

A. baumannii ATCC 17978 = assay: MIC, broth microdilution in M63 media; type: cell-based
Procedure: as §1, §2, §3, §4, §5, §6

A. baumannii ATCC 19606 = assay: MIC, broth microdilution in M63 media; type: cell-based
Procedure: as §1, §2, §3, §4, §5, §6

P. aeruginosa PAO1 = assay: Half maximal inhibitory concentration (IC50), planktonic growth (CFU/mL); type: cell-based; details: M63 media, 18 h
Procedure: Measurement of Half Maximal Inhibitory Concentration (IC50). IC50 values were determined as reported earlier13 with some modifications. Compound stock solutions in DMSO (100 mM and 10 mM) were prepared from powd er. To prep are the cell susp ensions utilized in the measu rements, starter cultures o f P. aeru ginosa wer e diluted to an optical density at 600 nm (OD600) = 0.005 in fresh LB media (5 mL) and then cultured at 37°C and 220 rpm for 4 h prior to diluting to an OD600 = 0.0001 in M63. A small volume of compound stock solution w as further diluted in DMSO to 30 µL and then diluted in M63 cell suspension to a final volume of 2.0 mL. The resultant solution was placed in a well of a 96-well plate and then serially 2-fold diluted in M63 cell suspension to produce 6 distinct com pound concent rations, each with 1.5% DMSO. Th e plate was co ver ed and incubated for 18 h at 35 °C in a Synergy H1 plate reader (Biotek). The resultant cell cultures were serially diluted in PBS and then plated on PI Agar plates (PIA; BD biosciences) for counting viable cells (CFU/mL). The % growth was calculated from the ratio CFU/mL(t reat ed )/CFU/mL(untreated control). To calculate the IC50 values, the % growth was plotted as a function of compound concentration expressed as log[compound] ( µM), and fitted to equation S1 describing the sigmoid- shaped response pattern, 14 where b is the slope factor, max is the upper asymptote (plateau), and min is the lower asymptote. IC 50 values are the average and standard deviation from three independent experiments , each conducted with thr ee techni cal replicates.

[3] = Stability in aqueous solution; type: physicochemical
A. baumannii 5075 [4] = assay: Checkerboard assay; type: cell-based; details: 5075; for MIC: Acinetobacter baumannii; for Interaction of the antibiotic with KM-5–25: checkerboard
Procedure: To carry out the serial dilution from the highest compound concentration, a 150 μ L solution of higher concentration compound or antibiotic was mixed with 150 μ L of cell suspension containing […] Th e 96 well plate was in cubated for 20 hat 35 °C with continuous orbital shaking (205 cpm) in an Epoch2 microplate reader (BioTek), monitoring the growth by following the OD600. […] All assays were p erfo rmed in three biological replicates, each with three […] replicates. Checkerboard Assay. […] CFU/mL. […] in the vertical and hori zontal direction, respectivel y. Bacterial suspensions were […] escrib ed above fo r the MIC determination and added to the plates. […] The 96-well […] cubated for 20 h at 35 °C with continuous orbital shaking (205 cpm) in an Epoch2 microplate reader (BioTek), monitoring the growth by following the OD600. The MIC values of inhibitor and antibiotic were obtained from the corresponding row or column which contained only one component, whereas the remaining rows and columns were utilized for calculating the fractional inhibitory concentration index (FIC) with the aid of equation […] = […]2 Time Kill Assays. Time-kill assays were performed with A. baumannii 507 5 by the broth macro- dilution method […] An overnight culture was diluted to approximately 5 x10^5 CFU/mL in fresh […] media. […] DMSO, or by the addition of antibiotic dissolved in water and a small volume of DMSO to produce the desired S7

Pa Bfr = details: earlier work, reference number not given; read-out: Kd of Pa Bfd binding to Pa Bfr; cited from earlier work
[5] = agent alone, KM-5–35 14 μg/mL = 40 μM

T1 sequence (Q9HY79 whole entry): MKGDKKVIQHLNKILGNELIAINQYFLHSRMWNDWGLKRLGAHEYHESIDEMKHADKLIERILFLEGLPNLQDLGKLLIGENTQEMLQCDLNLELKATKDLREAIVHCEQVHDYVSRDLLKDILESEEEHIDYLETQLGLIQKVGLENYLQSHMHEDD

Cc1cccc(O)c1CNc1cccc2c1C(=O)NC2=O [SB-15-171]
Solubility [1]: Unstable

Cc1ccc(O)c(CNc2ccc(Br)c3c2C(=O)NC3=O)c1 [SB-16-122]
Kd (recombinant Pa BfrB): 5 ± 1 µM | solubility at 4 h [1]: 40 µM (≈ 14.4 µg/mL) | MIC (A. baumannii 5075 [2]; 20 h): 20 µM (≈ 7.22 µg/mL) | MIC (A. baumannii ATCC 17978; 20 h): 20 µM (≈ 7.22 µg/mL) | MIC (A. baumannii ATCC 19606; 20 h): 20 µM (≈ 7.22 µg/mL) | IC50 (P. aeruginosa PAO1; planktonic cells): 19 ± 4 µM

O=C1NC(=O)c2c(NCc3ccc4occc4c3)cccc21 [SB-17-109]
Solubility [1]: Not soluble

O=C1NC(=O)c2c(NCc3cc(O)ccc3O)cccc21 [EB-5-93]
Solubility [1]: Unstable | stability in aqueous solution [3]: unstable in aqueous solution

O=C1NC(=O)c2c(NCc3cccc4c3CCO4)cccc21 [SB-17-110]
Solubility [1]: Not soluble

O=C(O)c1cn(C2CC2)c2cc(N3CCNCC3)c(F)cc2c1=O [ciprofloxacin, reference compound]
MIC (A. baumannii 5075 [4]; [5]): 128 µg/mL

O=C1NC(=O)c2c(NCc3ccc4c(c3)CCO4)cccc21 [SB-17-98]
Solubility [1]: Not soluble

C[C@@H](O)[C@H]1C(=O)N2C(C(=O)O)=C(S[C@@H]3CN[C@H](C(=O)N(C)C)C3)[C@H](C)[C@H]12 [meropenem, reference compound]
MIC (A. baumannii 5075 [4]; [5]): 2 µg/mL

O=C1NC(=O)c2c(NCc3cccc4[nH]ccc34)cccc21 [SB-17-75]
Kd (recombinant Pa BfrB): 15 ± 2 µM | solubility at 4 h ([1]; M63 media with 1.5% DMSO, 35 °C, aqueous buffer, kinetic from dmso stock): 60 µM (≈ 17.5 µg/mL) | MIC (A. baumannii 5075 [2]; Acinetobacter baumannii, 5075, 20 h): 30 µM (≈ 8.74 µg/mL) | MIC (A. baumannii ATCC 17978; Acinetobacter baumannii, ATCC17978, 20 h): 60 µM (≈ 17.5 µg/mL) | MIC (A. baumannii ATCC 19606; Acinetobacter baumannii, ATCC19606, 20 h): 30 µM (≈ 8.74 µg/mL) | IC50 (P. aeruginosa PAO1; Pseudomonas aeruginosa, PAO1, planktonic cells): 32 ± 13 µM

CC(C)(O/N=C(\C(=O)N[C@@H]1C(=O)N2C(C(=O)[O-])=C(C[n+]3ccccc3)CS[C@H]12)c1csc(N)n1)C(=O)O [ceftazidime, reference compound]
MIC (A. baumannii 5075 [4]; [5]): 256 µg/mL

O=C1NC(=O)c2c(NCc3cc(O)c(Br)cc3O)cccc21 [SB-16-186]
Solubility [1]: Unstable

O=C1NC(=O)c2c(NCc3ccc4[nH]ccc4c3)cccc21 [SB-17-16]
Solubility [1]: Not soluble

O=C1NC(=O)c2c(NCc3c(O)cccc3O)cccc21 [BN-16-70]
Solubility [1]: Unstable | stability in aqueous solution [3]: unstable in aqueous solution

O=C1NC(=O)c2c(NCC3CCOCC3)cccc21 [SB-16-237]
Kd (recombinant Pa BfrB): 42 ± 10 µM | solubility at 4 h [1]: 100 µM (≈ 26 µg/mL) | MIC (A. baumannii 5075 [2]; 20 h): > 100 µM | MIC (A. baumannii ATCC 17978; 20 h): > 100 µM | MIC (A. baumannii ATCC 19606; 20 h): > 100 µM | IC50, P. aeruginosa PAO1 (P. aeruginosa PAO1; planktonic cells): Not active

O=C1NC(=O)c2c(NCc3ccc(O)cc3O)cccc21 [BN-16-69]
Solubility [1]: Unstable | stability in aqueous solution [3]: unstable in aqueous solution

Cn1ccc2ccc(CNc3cccc4c3C(=O)NC4=O)cc21 [SB-17-114]
Solubility [1]: Not soluble

Cn1ccnc1CNc1cccc2c1C(=O)NC2=O [SB-17-95]
Kd (recombinant Pa BfrB): 57 ± 6 µM | solubility at 4 h [1]: 100 µM (≈ 25.6 µg/mL) | MIC, A. baumannii 5075 (A. baumannii 5075 [2]; 20 h): Not active | MIC, A. baumannii 17978 (A. baumannii ATCC 17978; 20 h): Not active | MIC, A. baumannii 19606 (A. baumannii ATCC 19606; 20 h): Not active | IC50, P. aeruginosa PAO1 (P. aeruginosa PAO1; planktonic cells): Not active

C[C@@H](O)[C@H]1C(=O)N2C(C(=O)O)=C(SCCN=CN)C[C@H]12 [imipenem, reference compound]
MIC (A. baumannii 5075 [4]; [5]): 1 µg/mL | Interaction of the antibiotic with KM-5–25 (A. baumannii 5075 [4]): additive

colistin [reference compound]
MIC alone (A. baumannii 5075 [4]; [5]): 1 µg/mL | Interaction of the antibiotic with KM-5–25 (A. baumannii 5075 [4]): synergy

NC[C@H]1O[C@H](O[C@H]2[C@H](O)[C@@H](O[C@H]3O[C@H](CO)[C@@H](O)[C@H](N)[C@H]3O)[C@H](N)C[C@@H]2N)[C@H](N)C[C@@H]1O [tobramycin, reference compound]
MIC (A. baumannii 5075 [4]; [5]): 512 µg/mL

B1: Pa Bfd: Bfr associated ferredoxin that binds Pa Bfr (protein, UniProt Q9HY80 1-73, looked up)
Bacterioferritin-associated …: MYVCLCQGVTDNQIRDAIYEGCCSYREVREATGVGTQCGKCACLAKQVVRETLNDLQSAQPVPAFGTTAFVAA
Kd (Pa Bfr): 4.7 µM
